Measurements as given in article PMC10778198, “First-in-Human Dose-Escalation Study of the Novel Oral Depsipeptide Class I-Targeting HDAC Inhibitor Bocodepsin (OKI-179) in Patients with Advanced Solid Tumors” (Cancers, 2023).
Marks after values point to notes of the source that are not given here.

System: patients with advanced solid tumors
Experiment: phase I dose escalation: safety, DLT, MTD, RP2D (CTCAE v. 5)
Assay type: in vivo
Conditions: for maximum tolerated dose (MTD): oral once daily
From the text: Subsequent dosing cohorts were enrolled using a standard 3 + 3 design.
If any patient in any cohort of three patients developed a DLT during cycle 1, an additional three patients were recruited to expand the cohort to up to six evaluable patients. If two or more patients in any expanded cohort developed a DLT, this dose was considered non-tolerated, and dose escalation was discontinued. The MTD was defined as the highest dose level for which no more than one of six patients experienced a DLT.
Patients were continuously evaluated for adverse events throughout the study using the Common Terminology Criteria of Adverse Events (CTCAE v. 5). The patients underwent a clinical history and physical examination, an ECOG PS, a complete blood count (CBCs), chemistry, coagulation studies, urinalysis, a serum pregnancy test (as applicable), a triplicate ECG, an ophthalmology examination, and baseline tumor assessment at screening. During cycle 1, weekly history and physical examination, CBC, chemistry, coagulation parameters, urinalysis, and triplicate ECGs were performed; in subsequent cycles, weekly labs were limited to a CBC. Repeat ophthalmology examinations were performed at cycle 3, day 1, and at the end of treatment. Repeat tumor assessment was performed every 2 cycles (6 weeks) in accordance with RECIST 1.1.

[1] = All Continuous Patients (N=8), G3
[2] = All Continuous Patients (N=8), G4

CC(C)[C@H](N)C(=O)SCC/C=C/[C@@H]1CC(=O)NCc2nc(cs2)C(=O)NC(C)(C)C(=O)N[C@@H](C(C)C)C(=O)O1 [OKI-179, Bocodepsin]
TEAE: Headache [1]: 0 N (%) | TEAE: Nausea [1]: 0 N (%) | TEAE: Pain [1]: 0 N (%) | TEAE: Platelet count decreased [1]: 0 N (%) | TEAE: Abdominal pain [2]: 0 N (%) | TEAE: Anemia [2]: 0 N (%) | TEAE: Constipation [2]: 0 N (%) | TEAE: Decreased appetite [2]: 0 N (%) | TEAE: Diarrhea [2]: 0 N (%) | TEAE: Dyspepsia [2]: 0 N (%) | TEAE: ECG QT prolonged [2]: 0 N (%) | TEAE: Fatigue [2]: 0 N (%) | TEAE: Headache [2]: 0 N (%) | TEAE: Nausea [2]: 0 N (%) | TEAE: Pain [2]: 0 N (%) | TEAE: Platelet count decreased [2]: 2 (25) N (%) | DLTs (Cohort 1, 30 mg, Schedule 1 (4:3), 1 patient): 0 patients | DLTs (Cohort 2, 60 mg, Schedule 1 (4:3), 2 patients): 0 patients | DLTs (Cohort 3, 90 mg, Schedule 1 (4:3), 1 patient): 0 patients | DLTs (Cohort 4, 120 mg, Schedule 1 (4:3), 1 patient): 0 patients | DLTs (Cohort 5, 150 mg, Schedule 1 (4:3), 1 patient): 0 patients | DLTs (Cohort 6, 180 mg, Schedule 1 (4:3), 1 patient): 0 patients | DLTs (Cohort 7, 210 mg, Schedule 1 (4:3), 1 patient): 0 patients | DLTs (Cohort 8, 270 mg, Schedule 1 (4:3), 3 patients): 0 patients | DLTs (Cohort 9, 350 mg, Schedule 1 (4:3), 3 patients): 0 patients | DLTs (Cohort 11, 300 mg, Schedule 2 (continuous), 2 patients, grade 2 and grade 4 thrombocytopenia): 2 * patients | DLTs (Cohort 12, 200 mg, Schedule 2 (continuous), 6 patients): 0 patients | TEAE: Anemia (all patients (n = 34)): 35.3% | TEAE: Fatigue (all patients (n = 34)): 47.1% | TEAE: Nausea (all patients (n = 34)): 70.6% | TEAE: anorexia (all patients (n = 34)): 32.4% | TEAE: decreased platelet count (thrombocytopenia) (all patients (n = 34)): 41.2% | grade > 3 treatment-related TEAE: anemia (all patients (n = 34)): 11.8% | grade > 3 treatment-related TEAE: anorexia (all patients (n = 34)): 5.9% | grade > 3 treatment-related TEAE: decreased platelet count (all patients (n = 34)): 5.9% | grade > 3 treatment-related TEAE: prolonged QT interval on ECG (all patients (n = 34)): 5.9% | number of grade > 3 treatment-related TEAEs (all patients (n = 34)): 15 | patients with Grade > 3 TEAEs (all patients (n = 34)): 18 (52.9%) patients (%) | patients with a treatment-related TEAE (all patients (n = 34)): 33 (97.1%) patients (%) | patients with grade > 3 treatment-related TEAEs (all patients (n = 34)): nine | patients with treatment-related TEAEs leading to dose holding or reduction (all patients (n = 34)): Eleven | patients with serious adverse events (SAEs) (all patients (n = 34), one treatment-related (grade 3 nausea)): 14 (41.2%) patients (%) | TEAE: Constipation (continuous dosing cohort): 75% | TEAE: Diarrhea (continuous dosing cohort): 38% | TEAE: Fatigue (continuous dosing cohort): 50% | TEAE: Headache (continuous dosing cohort): 38% | TEAE: Nausea (continuous dosing cohort): 75% | TEAE: platelet count decrease (continuous dosing cohort): 50% | grade 4 thrombocytopenia events (continuous dosing cohort, two events, in the 300 mg cohort): 25% | TEAE: Abdominal pain (continuous, 200 mg (N=6), G1): 1 (17) N (%) | TEAE: Anemia (continuous, 200 mg (N=6), G1): 0 N (%) | TEAE: Constipation (continuous, 200 mg (N=6), G1): 2 (33) N (%) | TEAE: Decreased appetite (continuous, 200 mg (N=6), G1): 1 (17) N (%) | TEAE: Diarrhea (continuous, 200 mg (N=6), G1): 2 (33) N (%) | TEAE: Dyspepsia (continuous, 200 mg (N=6), G1): 1 (17) N (%) | TEAE: ECG QT prolonged (continuous, 200 mg (N=6), G1): 1 (17) N (%) | TEAE: Fatigue (continuous, 200 mg (N=6), G1): 1 (17) N (%) | TEAE: Headache (continuous, 200 mg (N=6), G1): 2 (33) N (%) | TEAE: Nausea (continuous, 200 mg (N=6), G1): 2 (33) N (%) | TEAE: Pain (continuous, 200 mg (N=6), G1): 1 (17) N (%) | TEAE: Platelet count decreased (continuous, 200 mg (N=6), G1): 1 (17) N (%) | TEAE: Abdominal pain (continuous, 200 mg (N=6), G2): 1 (17) N (%) | TEAE: Anemia (continuous, 200 mg (N=6), G2): 1 (17) N (%) | TEAE: Constipation (continuous, 200 mg (N=6), G2): 3 (50) N (%) | TEAE: Decreased appetite (continuous, 200 mg (N=6), G2): 0 N (%) | TEAE: Diarrhea (continuous, 200 mg (N=6), G2): 0 N (%) | TEAE: Dyspepsia (continuous, 200 mg (N=6), G2): 1 (17) N (%) | TEAE: ECG QT prolonged (continuous, 200 mg (N=6), G2): 1 (17) N (%) | TEAE: Fatigue (continuous, 200 mg (N=6), G2): 2 (33) N (%) | TEAE: Headache (continuous, 200 mg (N=6), G2): 0 N (%) | TEAE: Nausea (continuous, 200 mg (N=6), G2): 2 (33) N (%) | TEAE: Pain (continuous, 200 mg (N=6), G2): 1 (17) N (%) | TEAE: Platelet count decreased (continuous, 200 mg (N=6), G2): 1 (17) N (%) | TEAE: Abdominal pain (continuous, 200 mg (N=6), G3): 0 N (%) | TEAE: Anemia (continuous, 200 mg (N=6), G3): 0 N (%) | TEAE: Constipation (continuous, 200 mg (N=6), G3): 0 N (%) | TEAE: Decreased appetite (continuous, 200 mg (N=6), G3): 0 N (%) | TEAE: Diarrhea (continuous, 200 mg (N=6), G3): 0 N (%) | TEAE: Dyspepsia (continuous, 200 mg (N=6), G3): 0 N (%) | TEAE: ECG QT prolonged (continuous, 200 mg (N=6), G3): 0 N (%) | TEAE: Fatigue (continuous, 200 mg (N=6), G3): 0 N (%) | TEAE: Headache (continuous, 200 mg (N=6), G3): 0 N (%) | TEAE: Nausea (continuous, 200 mg (N=6), G3): 0 N (%) | TEAE: Pain (continuous, 200 mg (N=6), G3): 0 N (%) | TEAE: Platelet count decreased (continuous, 200 mg (N=6), G3): 0 N (%) | TEAE: Abdominal pain (continuous, 200 mg (N=6), G4): 0 N (%) | TEAE: Anemia (continuous, 200 mg (N=6), G4): 0 N (%) | TEAE: Constipation (continuous, 200 mg (N=6), G4): 0 N (%) | TEAE: Decreased appetite (continuous, 200 mg (N=6), G4): 0 N (%) | TEAE: Diarrhea (continuous, 200 mg (N=6), G4): 0 N (%) | TEAE: Dyspepsia (continuous, 200 mg (N=6), G4): 0 N (%) | TEAE: ECG QT prolonged (continuous, 200 mg (N=6), G4): 0 N (%) | TEAE: Fatigue (continuous, 200 mg (N=6), G4): 0 N (%) | TEAE: Headache (continuous, 200 mg (N=6), G4): 0 N (%) | TEAE: Nausea (continuous, 200 mg (N=6), G4): 0 N (%) | TEAE: Pain (continuous, 200 mg (N=6), G4): 0 N (%) | TEAE: Platelet count decreased (continuous, 200 mg (N=6), G4): 0 N (%) | TEAE: Abdominal pain (continuous, 300 mg (N=2), G1): 0 N (%) | TEAE: Anemia (continuous, 300 mg (N=2), G1): 0 N (%) | TEAE: Constipation (continuous, 300 mg (N=2), G1): 1 (50) N (%) | TEAE: Decreased appetite (continuous, 300 mg (N=2), G1): 0 N (%) | TEAE: Diarrhea (continuous, 300 mg (N=2), G1): 1 (50) N (%) | TEAE: Dyspepsia (continuous, 300 mg (N=2), G1): 0 N (%) | TEAE: ECG QT prolonged (continuous, 300 mg (N=2), G1): 0 N (%) | TEAE: Fatigue (continuous, 300 mg (N=2), G1): 0 N (%) | TEAE: Headache (continuous, 300 mg (N=2), G1): 1 (50) N (%) | TEAE: Nausea (continuous, 300 mg (N=2), G1): 2 (100) N (%) | TEAE: Pain (continuous, 300 mg (N=2), G1): 0 N (%) | TEAE: Platelet count decreased (continuous, 300 mg (N=2), G1): 0 N (%) | TEAE: Abdominal pain (continuous, 300 mg (N=2), G2): 0 N (%) | TEAE: Anemia (continuous, 300 mg (N=2), G2): 1 (50) N (%) | TEAE: Constipation (continuous, 300 mg (N=2), G2): 0 N (%) | TEAE: Decreased appetite (continuous, 300 mg (N=2), G2): 0 N (%) | TEAE: Diarrhea (continuous, 300 mg (N=2), G2): 0 N (%) | TEAE: Dyspepsia (continuous, 300 mg (N=2), G2): 0 N (%) | TEAE: ECG QT prolonged (continuous, 300 mg (N=2), G2): 0 N (%) | TEAE: Fatigue (continuous, 300 mg (N=2), G2): 0 N (%) | TEAE: Headache (continuous, 300 mg (N=2), G2): 0 N (%) | TEAE: Nausea (continuous, 300 mg (N=2), G2): 0 N (%) | TEAE: Pain (continuous, 300 mg (N=2), G2): 0 N (%) | TEAE: Platelet count decreased (continuous, 300 mg (N=2), G2): 0 N (%) | TEAE: Abdominal pain (continuous, 300 mg (N=2), G3): 0 N (%) | TEAE: Anemia (continuous, 300 mg (N=2), G3): 0 N (%) | TEAE: Constipation (continuous, 300 mg (N=2), G3): 0 N (%) | TEAE: Decreased appetite (continuous, 300 mg (N=2), G3): 1 (50) N (%) | TEAE: Diarrhea (continuous, 300 mg (N=2), G3): 0 N (%) | TEAE: Dyspepsia (continuous, 300 mg (N=2), G3): 0 N (%) | TEAE: ECG QT prolonged (continuous, 300 mg (N=2), G3): 0 N (%) | TEAE: Fatigue (continuous, 300 mg (N=2), G3): 1 (50) N (%) | TEAE: Headache (continuous, 300 mg (N=2), G3): 0 N (%) | TEAE: Nausea (continuous, 300 mg (N=2), G3): 0 N (%) | TEAE: Pain (continuous, 300 mg (N=2), G3): 0 N (%) | TEAE: Platelet count decreased (continuous, 300 mg (N=2), G3): 0 N (%) | TEAE: Abdominal pain (continuous, 300 mg (N=2), G4): 0 N (%) | TEAE: Anemia (continuous, 300 mg (N=2), G4): 0 N (%) | TEAE: Constipation (continuous, 300 mg (N=2), G4): 0 N (%) | TEAE: Decreased appetite (continuous, 300 mg (N=2), G4): 0 N (%) | TEAE: Diarrhea (continuous, 300 mg (N=2), G4): 0 N (%) | TEAE: Dyspepsia (continuous, 300 mg (N=2), G4): 0 N (%) | TEAE: ECG QT prolonged (continuous, 300 mg (N=2), G4): 0 N (%) | TEAE: Fatigue (continuous, 300 mg (N=2), G4): 0 N (%) | TEAE: Headache (continuous, 300 mg (N=2), G4): 0 N (%) | TEAE: Nausea (continuous, 300 mg (N=2), G4): 0 N (%) | TEAE: Pain (continuous, 300 mg (N=2), G4): 0 N (%) | TEAE: Platelet count decreased (continuous, 300 mg (N=2), G4): 2 (100) N (%) | recommended phase 2 dose (RP2D) (daily on a 4:3 schedule): 300 mg | maximum tolerated dose (MTD) (4:3 intermittent dosing): 450 mg | maximum tolerated dose (MTD) (continuous dosing): 200 mg | patients with grade 1 or 2 QT prolongation (whole study): four | patients with grade 3 QT prolongation (whole study): three
